Results: ChEMBL document CHEMBL1629701, “Phase 2a randomized controlled trial of short-term activity, safety, and pharmacokinetics of a novel nonnucleoside reverse transcriptase inhibitor, RDEA806, in HIV-1-positive, antiretroviral-naive subjects” (Antimicrob Agents Chemother, 2010)
Converted amounts (≈) assume the structure as drawn.

How the values were obtained:
Homo sapiens [1] = test: Reduction in uric acid level in healthy human serum at 600 mg, po administered every day; assay type: functional
[2] = test system: Human immunodeficiency virus 1; test: Antiviral activity against HIV1 infected in fasted human assessed as decrease in log10 HIV RNA copies/ml at 800 mg, po […] followed by a single dose on day 8 measured on day 9 relative to pooled placebo control; assay type: functional
[3] = test system: Human immunodeficiency virus 1; test: Antiviral activity against HIV1 infected in fasted human assessed as decrease in log10 HIV RNA copies/ml at 1000 mg, po […] followed by a single dose on day 8 measured on day 9 relative to pooled placebo control; assay type: functional
[4] = Tmax in fasted human at 400 mg, po every 12 hrs measured on day 8; assay type: ADME, organism-based; details: in vivo
[5] = test system: Human immunodeficiency virus 1; test: Antiviral activity against HIV1 infected in human assessed as change in CD4 expressing T-cell count from baseline at 600 mg, po BID for 7 days as four modified-release capsules followed by a single dose on day 8 measured on day 9 relative to pooled placebo control; assay type: functional
[6] = test system: Human immunodeficiency virus 1; test: Antiviral activity against HIV1 infected in fasted human assessed as decrease in log10 HIV RNA copies/ml at 400 mg, po BID for 7 days as four modified-release capsules followed by a single dose on day 8 measured on day 9 relative to pooled placebo control; assay type: functional
[7] = test system: Human immunodeficiency virus 1; test: Antiviral activity against HIV1 infected in human assessed as change in CD4 expressing T-cell count from baseline at 1000 mg, po administered every day as five enteric-coated tablets followed by a single dose on day 8 measured on day 9 relative to pooled placebo control; assay type: functional
[8] = test system: Human immunodeficiency virus 1; test: Antiviral activity against HIV1 infected in fasted human assessed as viral load decay rate as viral log10 RNA copies/ml/day at 400 mg, po BID for 7 days as four modified-release capsules followed by a single dose on day 8 measured on day 9; assay type: functional
Homo sapiens [9] = test: Reduction in uric acid level in healthy human serum at 800 mg, po administered every day; assay type: ADME, organism-based; details: in vivo
[10] = Cmax in fasted human at 1000 mg, po every 24 hrs measured on day 8; assay type: ADME, organism-based; set-up: dose 1000 mg, route oral; details: plasma
[11] = biological target: T1, Solute carrier family 22 member 12 (Homo sapiens, UniProt Q96S37); test: Inhibition of human URAT-1 assessed as increase in renal uric acid excretion; set-up: species or system Kidney
T1 sequence (Q96S37 whole entry): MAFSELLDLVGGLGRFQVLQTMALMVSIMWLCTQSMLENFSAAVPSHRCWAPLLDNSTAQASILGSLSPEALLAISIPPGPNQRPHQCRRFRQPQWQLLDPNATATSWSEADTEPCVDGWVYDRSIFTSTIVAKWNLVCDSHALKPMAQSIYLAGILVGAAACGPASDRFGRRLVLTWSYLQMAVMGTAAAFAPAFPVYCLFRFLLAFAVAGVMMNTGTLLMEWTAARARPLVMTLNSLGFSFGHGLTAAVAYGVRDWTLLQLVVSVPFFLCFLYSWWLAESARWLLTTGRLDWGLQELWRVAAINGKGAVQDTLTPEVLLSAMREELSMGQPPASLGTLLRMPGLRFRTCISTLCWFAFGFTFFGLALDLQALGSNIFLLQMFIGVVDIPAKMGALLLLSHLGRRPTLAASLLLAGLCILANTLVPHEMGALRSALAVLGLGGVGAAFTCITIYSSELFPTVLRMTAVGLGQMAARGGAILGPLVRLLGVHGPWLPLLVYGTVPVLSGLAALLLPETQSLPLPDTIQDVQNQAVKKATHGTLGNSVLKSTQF

Homo sapiens [12] = species on record: Homo sapiens; test: Toxicity in healthy human assessed as occurrence of adverse events; assay type: organism-based; details: in vivo
[13] = test system: Human immunodeficiency virus 1; test: Antiviral activity against HIV1; assay type: functional, organism-based
[14] = test system: Human immunodeficiency virus 1; test: Antiviral activity against HIV1 infected in fasted human assessed as decrease in plasma viral log10 RNA copies/ml at 600 mg, po […] followed by a single dose on day 8 measured on day 9 relative to pooled placebo control; assay type: functional
Homo sapiens [15] = test: Reduction in uric acid level in healthy human serum at 400 mg, po BID; assay type: functional
[16] = test system: Human immunodeficiency virus 1; test: Antiviral activity against HIV1 infected in fasted human assessed as decrease in log10 HIV RNA copies/ml at 600 mg, po […] followed by a single dose on day 8 measured on day 9 relative to pooled placebo control; assay type: functional
Homo sapiens [17] = test: Reduction in uric acid level in healthy human serum at 1000 mg, po administered every day; assay type: ADME, organism-based; details: in vivo
[18] = Renal clearance in rat; assay type: ADME, organism-based, Kidney; details: in vivo, read-out: CL_renal
[19] = test system: Human immunodeficiency virus 1; test: Antiviral activity against HIV1 infected in fed human assessed as viral load decay rate as viral log10 RNA copies/ml/day at 800 mg, po administered every day as four enteric-coated tablets followed by a single dose on day 8 measured on day 9; assay type: functional
[20] = test system: Human immunodeficiency virus 1; test: Antiviral activity against HIV1 infected in human assessed as change in CD4 expressing T-cell count from baseline at 800 mg, po administered every day as four enteric-coated tablets followed by a single dose on day 8 measured on day 9 relative to pooled placebo control; assay type: functional
[21] = test system: Human immunodeficiency virus 1; test: Antiviral activity against HIV1 infected in human assessed as change in CD4 expressing T-cell count from baseline at 400 mg, po BID for 7 days as four modified-release capsules followed by a single dose on day 8 measured on day 9 relative to pooled placebo control; assay type: functional
[22] = Tmax in fasted human at 600 mg, po every 24 hrs measured on day 8; assay type: ADME, organism-based; details: in vivo
[23] = Drug excretion in dog urine; assay type: ADME, Canis lupus familiaris; details: read-out: Activity
[24] = Drug excretion in rhesus monkey urine; assay type: ADME, Macaca mulatta; details: read-out: Activity
[25] = Tmax in fasted human at 1000 mg, po every 24 hrs measured on day 8; assay type: ADME, organism-based; details: in vivo
[26] = Plasma protein binding in dog; assay type: ADME, cell-free, Canis lupus familiaris; details: read-out: PPB
[27] = AUC (0 to 12 hrs) in human plasma at 300 mg administered as multiple doses, BID; assay type: ADME, organism-based; set-up: time < 12 hr, dose 300 mg
[28] = Renal clearance in rhesus monkey; assay type: ADME, organism-based, Macaca mulatta, Kidney; details: in vivo, read-out: CL_renal
[29] = test system: Human immunodeficiency virus 1; test: Antiviral activity against HIV1 infected in fasted human assessed as decrease in plasma viral log10 RNA copies/ml at 400 mg, po BID for 7 days as four modified-release capsules followed by a single dose on day 8 measured on day 9 relative to pooled placebo control; assay type: functional
[30] = AUC (24 hrs) in fasted human at 1000 mg, po every 24 hrs measured on day 8; assay type: ADME, organism-based; set-up: dose 1000 mg, time < 24 hr, route oral; details: plasma
[31] = test system: Human immunodeficiency virus 1; test: Antiviral activity against HIV1 infected in human assessed as change in CD8 expressing T-cell count from baseline at 1000 mg, po administered every day as five enteric-coated tablets followed by a single dose on day 8 measured on day 9 relative to pooled placebo control; assay type: functional
[32] = Cmax in fasted human at 800 mg, po every 24 hrs measured on day 8; assay type: ADME, organism-based; set-up: dose 800 mg, route oral; details: in vivo
[33] = Drug excretion in rat urine; assay type: ADME, tissue-based; details: read-out: Activity

O=C(CSc1nnc(Br)n1-c1ccc(C2CC2)c2ccccc12)Nc1ccc(C(=O)O)cc1Cl
Activity (Homo sapiens [1]): 81 µmol/L
Activity [2]: -1.619 mL⁻¹
Activity [3]: -1.696 mL⁻¹
Tmax [4]: 1.5 h
Activity [5]: -14.44 /mm3
Activity [6]: -1.948 mL⁻¹
Activity [7]: 90.48 /mm3
Activity [8]: -0.25 mL⁻¹
Activity (Homo sapiens [9]): 58 µmol/L
Cmax [10]: 3700 ng/mL
Activity [11]: Active
Activity (Homo sapiens [12]): Non-toxic
EC50 [13]: 1.7 ng/mL (≈ 3.05 nM)
Activity [14]: -1.5241 mL⁻¹
Activity (Homo sapiens [15]): 88 µmol/L
Activity [16]: -1.394 mL⁻¹
Activity (Homo sapiens [17]): 88 µmol/L
CL renal [18]: ≤ 1 mL/min
Activity [19]: -0.2 mL⁻¹
Activity [20]: 100.74 /mm3
Activity [21]: 19.22 /mm3
Tmax [22]: 2 h
dose excreted [23]: < 0.06%
dose excreted [24]: < 0.06%
Tmax [25]: 3 h
fraction unbound [26]: < 0.01
AUC at 12 h [27]: 3160 ng·h/mL
CL renal [28]: ≤ 1 mL/min
Activity [29]: -2.0608 mL⁻¹
AUC at 24 h [30]: 17400 ng·h/mL
Activity [31]: 71.04 /mm3
Cmax [32]: 1910 ng/mL
dose excreted [33]: < 0.06%
